From patent US9090615B2, “Adamantyl derivatives as cannabinoid receptor 2 agonists” (Hoffmann-La Roche Inc., priority 2012, dated 2015)
Where two headings read alike, the source gives them in different places.

What was measured:
human CB1 receptors = molecular target: T1, human CB1 receptors (Homo sapiens, UniProt P21554); assay: functional cAMP assay, CHO cells expressing human CB1; assay type: cell-based
T1 construct: expressed in transfected cells; host or cells: CHO cells
Experimental: CHO cells expressing human CB1 or CB2 receptors are seeded 17-24 hours prior to the experiment 50.000 cells per well in a black 96 well plate with flat clear bottom (Corning Costar #3904) in DMEM (Invitrogen No. 31331), 1×HT supplement, with 10% fetal calf serum and incubated at 5% CO2 and 37° C. in a humidified incubator. The growth medium was exchanged with Krebs Ringer Bicarbonate buffer with 1 mM IBMX and incubated at 30° C. for 30 min. Compounds were added to a final assay volume of 100 μl and incubated for 30 min at 30° C. Using the cAMP-Nano-TRF detection kit the assay (Roche Diagnostics) was stopped by the addition of 50 μl lysis reagent (Tris, NaCl, 1.5% Triton X100, 2.5% NP40, 10% NaN3) and 50 μl detection solutions (20 μM mAb Alexa700-cAMP 1:1, and 48 μM Ruthenium-2-AHA-cAMP) and shaken for 2 h at room temperature. The time-resolved energy transfer is measured by a TRF reader (Evotec Technologies GmbH), equipped with a ND:YAG laser as excitation source. The plate is measured twice with the excitation at 355 nm and at the emission with a delay of 100 ns and a gate of 100 ns, total exposure time 10 s at 730 (bandwidth 30 nm) or 645 nm (bandwidth 75 nm), respectively. The FRET signal is calculated as follows: FRET=T730-Alexa730-P(T645-B645) with P=Ru730-B730/Ru645-B645, where T730 is the test well measured at 730 nM, T645 is the test well measured at 645 nm, B730 and B645 are the buffer controls at 730 nm and 645 nm, respectively. cAMP content is determined from the function of a standard curve spanning from 10 μM to 0.1 nM cAMP.
EC50 values were determined using Activity Base analysis (ID Business Solution, Limited). The EC50 values for a wide range of cannabinoid agonists generated from this assay were in agreement with the values published in the scientific literature.

human CB2 receptors = molecular target: T2, human CB2 receptors (Homo sapiens, UniProt P34972); assay: functional cAMP assay, CHO cells expressing human CB2; assay type: cell-based
T2 construct: expressed in transfected cells; host or cells: CHO cells
T2 sequence (P34972 whole entry): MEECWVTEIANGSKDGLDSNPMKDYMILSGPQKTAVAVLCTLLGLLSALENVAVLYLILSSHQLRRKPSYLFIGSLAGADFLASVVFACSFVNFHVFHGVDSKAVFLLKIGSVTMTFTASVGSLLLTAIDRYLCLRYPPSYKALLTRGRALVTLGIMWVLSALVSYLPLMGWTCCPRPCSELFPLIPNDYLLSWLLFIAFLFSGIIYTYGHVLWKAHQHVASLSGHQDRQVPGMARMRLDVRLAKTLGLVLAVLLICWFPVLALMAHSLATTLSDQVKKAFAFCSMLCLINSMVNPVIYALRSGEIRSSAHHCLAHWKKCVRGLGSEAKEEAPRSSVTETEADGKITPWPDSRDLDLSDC
Experimental: The growth medium was exchanged with Krebs Ringer Bicarbonate buffer with 1 mM IBMX and incubated at 30° C. for 30 min. Compounds were added to a final assay volume of 100 μl and incubated for 30 min at 30° C. […] The time-resolved energy transfer is measured by a TRF reader (Evotec Technologies GmbH), equipped with a ND:YAG laser as excitation source. The plate is measured twice with the excitation at 355 nm and at the emission with a delay of 100 ns and a gate of 100 ns, total exposure time 10 s at 730 (bandwidth 30 nm) or 645 nm (bandwidth 75 nm), respectively.
EC50 values were determined using Activity Base analysis (ID Business Solution, Limited).

[1] = CHO cells expressing human CB1, read-out: Ec50:CB1 - hu cAMP
[2] = CHO cells expressing human CB2, read-out: Ec50:CB2 - hu cAMP

T1 sequence (P21554 whole entry): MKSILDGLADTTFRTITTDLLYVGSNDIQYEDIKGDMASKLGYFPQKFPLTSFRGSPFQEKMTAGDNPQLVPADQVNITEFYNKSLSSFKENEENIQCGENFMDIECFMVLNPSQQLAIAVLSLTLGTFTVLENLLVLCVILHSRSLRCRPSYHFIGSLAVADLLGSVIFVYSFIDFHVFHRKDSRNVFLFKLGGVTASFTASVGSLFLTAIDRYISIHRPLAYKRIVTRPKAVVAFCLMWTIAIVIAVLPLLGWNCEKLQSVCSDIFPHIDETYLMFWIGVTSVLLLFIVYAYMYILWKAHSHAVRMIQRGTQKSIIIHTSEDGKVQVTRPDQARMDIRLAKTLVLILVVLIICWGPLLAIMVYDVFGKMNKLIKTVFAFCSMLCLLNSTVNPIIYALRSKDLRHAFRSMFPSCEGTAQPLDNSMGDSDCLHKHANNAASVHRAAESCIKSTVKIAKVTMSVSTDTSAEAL

EC50 (human CB2 receptors; [2]) | Structure (SMILES) | EC50 (human CB1 receptors; [1]) | EC50 (human CB2 receptors) | EC50 (human CB1 receptors)
69.4 nM | O=C(N1CCc2ccccc2C1)C12CC3CC(CC(C3)C1)C2 [Example 1, Adamantan-1-yl-(3,4-dihydro-1H-isoquinolin-2-yl)-methanone] | > 10000 nM |  | 
265 nM | O=C(N1CCC(O)c2ccccc21)C12CC3CC(CC(C3)C1)C2 (stereo not drawn) [Example 9, Adamantan-1-yl-(4-hydroxy-3,4-dihydro-2H-quinolin-1-yl)-methanone] | > 10000 nM |  | 
261 nM | CC1Cc2ccccc2N1C(=O)C12CC3CC(CC(C3)C1)C2 (stereo not drawn) [Example 10, Adamantan-1-yl-(2-methyl-2,3-dihydro-indol-1-yl)-methanone] | > 10000 nM |  | 
 | CCOC1CCN(C(=O)C23CC4CC(CC(C4)C2)C3)c2ccccc21 (stereo not drawn) [Example 12, Adamantan-1-yl-(4-ethoxy-3,4-dihydro-2H-quinolin-1-yl)-methanone] |  | 18.6 nM | 
 | O=C(N1CCc2ccc([N+](=O)[O-])cc21)C12CC3CC(CC(C3)C1)C2 [Example 13, Adamantan-1-yl-(6-nitro-2,3-dihydro-indol-1-yl)-methanone] |  | 19.4 nM | > 10000 nM
82 nM | O=C(N1CCc2cc([N+](=O)[O-])ccc21)C12CC3CC(CC(C3)C1)C2 [Example 14, Adamantan-1-yl-(5-nitro-2,3-dihydro-indol-1-yl)-methanone] | > 10000 nM |  | 
 | O=C(N1CCc2cc(Br)ccc21)C12CC3CC(CC(C3)C1)C2 [Example 15, Adamantan-1-yl-(5-bromo-2,3-dihydro-indol-1-yl)-methanone] |  | 11.5 nM | > 10000 nM
 | O=C(N1CCc2c(F)cc(F)cc21)C12CC3CC(CC(C3)C1)C2 [Example 16, Adamantan-1-yl-(4,6-difluoro-2,3-dihydro-indol-1-yl)-methanone] |  | 54 nM | > 10000 nM
 | O=C(N1CCc2ccc(C(F)(F)F)cc21)C12CC3CC(CC(C3)C1)C2 [Example 17, Adamantan-1-yl-(6-trifluoromethyl-2,3-dihydro-indol-1-yl)-methanone] |  | 14.6 nM | 
70.6 nM | COC(=O)c1ccc2c(c1)CCN2C(=O)C12CC3CC(CC(C3)C1)C2 [Example 19, 1-(Adamantane-1-carbonyl)-2,3-dihydro-1H-indole-5-carboxylic acid methyl ester] | > 10000 nM |  | 
19.9 nM | O=C(N1Cc2ccccc2C1)C12CC3CC(CC(C3)C1)C2 [Example 21, Adamantan-1-yl-(1,3-dihydro-isoindol-2-yl)-methanone] |  |  | 
 | COc1cccc2c1N(C(=O)C13CC4CC(CC(C4)C1)C3)CC2 [Example 22, Adamantan-1-yl-(7-methoxy-2,3-dihydro-indol-1-yl)-methanone] |  | 26.4 nM | > 10000 nM
 | CC1(C)CN(C(=O)C23C[C@H]4C[C@@H](C2)C[C@@H](C3)C4)c2ccccc21 [Example 23, Adamantan-1-yl-(3,3-dimethyl-2,3-dihydro-indol-1-yl)-methanone] |  | 15.9 nM | > 10000 nM
 | COC(=O)c1cccc2c1CCN2C(=O)[C@]12C[C@H]3C[C@H](C[C@H](C3)C1)C2 [Example 24, 1-(Adamantane-1-carbonyl)-2,3-dihydro-1H-indole-4-carboxylic acid methyl ester] |  | 42.1 nM | > 10000 nM
10.4 nM | Cc1ccc2c(c1)CCN2C(=O)C12CC3CC(CC(C3)C1)C2 [Example 26, Adamantan-1-yl-(5-methyl-2,3-dihydro-indol-1-yl)-methanone] | > 10000 nM |  | 
6.6 nM | Cc1ccc2c(c1)N(C(=O)C13CC4CC(CC(C4)C1)C3)CC2 [Example 27, Adamantan-1-yl-(6-methyl-2,3-dihydro-indol-1-yl)-methanone] | > 10000 nM |  | 
 | Cc1cccc2c1N(C(=O)C13CC4CC(CC(C4)C1)C3)CC2 [Example 28, Adamantan-1-yl-(7-methyl-2,3-dihydro-indol-1-yl)-methanone] |  | 55.7 nM | 
29.6 nM | COc1cccc2c1CCN2C(=O)C12CC3CC(CC(C3)C1)C2 [Example 29, Adamantan-1-yl-(4-methoxy-2,3-dihydro-indol-1-yl)-methanone] | > 10000 nM |  | 
4.3 nM | Cc1cccc2c1CCN2C(=O)C12CC3CC(CC(C3)C1)C2 [Example 30, Adamantan-1-yl-(4-methyl-2,3-dihydro-indol-1-yl)-methanone] |  |  | 
 | CN1CCN(C(=O)C23C[C@H]4C[C@@H](C2)C[C@@H](C3)C4)c2ccccc21 [Example 31, Adamantan-1-yl-(4-methyl-3,4-dihydro-2H-quinoxalin-1-yl)-methanone] |  | 28.9 nM | > 10000 nM
 | CC(C)N1CCN(C(=O)C23CC4CC(CC(C4)C2)C3)c2ccccc21 [Example 32, Adamantan-1-yl-(4-isopropyl-3,4-dihydro-2H-quinoxalin-1-yl)-methanone] |  | 6.2 nM | > 10000 nM
 | COCCOC1CCN(C(=O)C23CC4CC(CC(C4)C2)C3)c2ccccc21 (stereo not drawn) [Example 33, Adamantan-1-yl-[4-(2-methoxy-ethoxy)-3,4-dihydro-2H-quinolin-1-yl]-methanone] |  | 21.3 nM | 
27.2 nM | COC1CCN(C(=O)C23CC4CC(CC(C4)C2)C3)c2ccccc21 (stereo not drawn) [Example 36, Adamantan-1-yl-(4-methoxy-3,4-dihydro-2H-quinolin-1-yl)-methanone] |  |  | 
492 nM | O=C(N1CCc2ccccc21)C12CC3CC(CC(O)(C3)C1)C2 [Example 41, (2,3-Dihydro-indol-1-yl)-(3-hydroxy-adamantan-1-yl)-methanone] |  |  | 
22.1 nM | O=C(NC12CC3CC(CC(C3)C1)C2)N1Cc2ccccc2C1 [Example 42, 1,3-Dihydro-isoindole-2-carboxylic acid adamantan-1-ylamide] |  |  | 

Structure (SMILES) | EC50 (human CB2 receptors; [2]) | EC50 (human CB1 receptors; [1]) | EC50 (human CB2 receptors) | EC50 (human CB1 receptors)
O=C(N1CCCc2ccccc21)C12CC3CC(CC(C3)C1)C2 [Example 2, Adamantan-1-yl-(3,4-dihydro-2H-quinolin-1-yl)-methanone] | 71.6 nM |  |  | 
O=C1CCN(C(=O)C23CC4CC(CC(C4)C2)C3)c2ccccc21 [Example 3, 1-(Adamantane-1-carbonyl)-2,3-dihydro-1H-quinolin-4-one] | 330 nM | > 10000 nM |  | 
CC(C)(C)NC(=O)C1CCN(C(=O)C23CC4CC(CC(C4)C2)C3)c2ccccc21 (stereo not drawn) [Example 4, 1-(Adamantane-1-carbonyl)-1,2,3,4-tetrahydro-quinoline-4-carboxylic acid tert-butylamide] | 445 nM | > 10000 nM |  | 
COC(=O)C1Cc2ccccc2N(C(=O)C23CC4CC(CC(C4)C2)C3)C1 (stereo not drawn) [Example 5, 1-(Adamantane-1-carbonyl)-1,2,3,4-tetrahydro-quinoline-3-carboxylic acid methyl ester] | 221 nM | > 10000 nM |  | 
CC(C)C1(CO)CCN(C(=O)C23CC4CC(CC(C4)C2)C3)c2ccccc21 (stereo not drawn) [Example 6, Adamantan-1-yl-(4-hydroxymethyl-4-isopropyl-3,4-dihydro-2H-quinolin-1-yl)-methanone] | 400 nM | > 10000 nM |  | 
O=C(N1CCOc2ccccc21)C12CC3CC(CC(C3)C1)C2 [Example 7, Adamantan-1-yl-(2,3-dihydro-benzo[1,4]oxazin-4-yl)-methanone] | 180 nM | > 10000 nM |  | 
Cc1cccc2c1N(C(=O)C13CC4CC(CC(C4)C1)C3)CCC2 [Example 8, Adamantan-1-yl-(8-methyl-3,4-dihydro-2H-quinolin-1-yl)-methanone] | 277 nM | > 10000 nM |  | 
O=C(N1CCc2ccccc21)C12CC3CC(CC(C3)C1)C2 [Example 11, Adamantan-1-yl-(2,3-dihydro-indol-1-yl)-methanone] | 23.2 nM |  |  | 
O=C(N1CCc2cc(F)ccc21)C12CC3CC(CC(C3)C1)C2 [Example 18, Adamantan-1-yl-(5-fluoro-2,3-dihydro-indol-1-yl)-methanone] | 4.6 nM |  |  | 
O=C(N1CCc2c1ccnc2Cl)C12CC3CC(CC(C3)C1)C2 [Example 20, Adamantan-1-yl-(4-chloro-2,3-dihydro-pyrrolo[3,2-c]pyridin-1-yl)-methanone] | 273 nM | > 10000 nM |  | 
CC1c2ccccc2N(C(=O)C23C[C@H]4C[C@@H](C2)C[C@@H](C3)C4)C1C (stereo partly drawn) [Example 25, Adamantan-1-yl-(2,3-dimethyl-2,3-dihydro-indol-1-yl)-methanone] | 163 nM | > 10000 nM |  | 
